What was measured:
[1] = system: Rhipicephalus microplus larvae, multi-resistant Tiaro reference strain; assay: Larval packet test (LPT), cattle tick larvae, multi-resistant strain; type: in vivo; conditions: for LC50 (ppm) / LC99 (ppm): Tiaro, Probit analysis
Procedure: (§1) Filter papers (75 mm×85 mm Whatman® No. 541), with grid patterns, were impregnated on ½ of the paper with 225 μL of each solution using a micro-pipette and immediately folded in half, enveloped in polyethylene plastic and sealed with 3 bulldog clips. The impregnated papers were kept at room temperature on aluminium trays for a minimum of 60 minutes to allow for dispersal across the grid pattern of the paper prior to aliquoting of larvae. The packets were prepared in duplicate for each concentration, including the negative control.
(§2) Aliquots of approximately 100 larvae were placed into each packet using plastic disposable forceps and the packets resealed and incubated and 27° C. and 85% relative humidity (RH).
(§3) After 24 hours, the larval packets were opened and the numbers of dead and live larvae were counted under a magnification lamp. Percentage mortality was calculated and, where applicable, corrected using Abbott's Formula (Abbott, 1925, J. Economic Entomology, 18:256-257): […]
(§4) LC50 and LC99 values were determined by Probit mortality vs log concentration analysis. Probit values were derived from “Transformation of Percentages to Probit's Tables” published by Fisher R. A. and Yates F. (1938).
(§5) The LPT Assay of Example 1 was repeated using a narrow range of concentrations, 1 in 2 series, of flavesone to determine LC50 and LC99 values against the susceptible NRFS and the multi-resistant Tiaro reference strain.
The Tiaro strain of R. microplus comprises of about 30% fluazuron, 60.6% cypermethrin (SP), 57.6% flumethrin (SP), 16.2% amitraz (amidine), 11.3% DDT, 9.3% chlorpyrifos (OP) and 2.4% dieldrin resistance [2014 acaricide resistance profiling].
The stock solution of flavesone (100,000 ppm) was diluted 1 in 10 with olive oil (1 mL to 9 mL diluent) to give 10,000 ppm, which was then further diluted 1 in 2 in series (5 mL to 5 mL diluent) to give 5,000 ppm, 2,500 ppm, 1,250 ppm, 625 ppm, 312.5 ppm and 156.25 ppm concentrations.
For the preparation of the positive control, cypermethrin, a stock solution of a concentration of 10,000 ppm was prepared in 2:1 trichloroethylene (TCE)/olive oil as the solvent ([…] cypermethrin, 94.8% purity, to 10 mL solvent) and then further diluted 1 in 2 in series (5 mL to 5 mL solvent) to also give 5,000 ppm, 2,500 ppm, 1,250 ppm, 625 ppm, 312.5 ppm and 156.25 ppm.
The flavesone papers were prepared as in Example 1.
The cypermethrin papers were impregnated with 670 μL of each solution using a micro-pipette and hung on a rack in a fume-hood to allow papers to dry (evaporation of TCE) for a minimum of 60 minutes. The papers were then folded in half and sealed with three bulldog clips, placed on aluminium trays prior to aliquoting the larvae. All packets were prepared in duplicate.
A dose-response relationship was determined at 24 hours contact exposure.
Concentrations of 1,250 ppm, 625 ppm and 312.5 ppm flavesone concentrations prepared for Example 3 were used on the same day of preparation. Duplicate papers were prepared for both the NRFS and Tiaro strains (including negative controls) as described in Example 2.
Mortality was assessed at 48 hours and LC50 and LC99 values were determined by Probit mortality vs log concentration analysis.

[2] = system: Rhipicephalus microplus larvae, susceptible non-resistant field strain (NRFS); assay: Larval packet test (LPT), cattle tick larvae, susceptible strain; type: in vivo; conditions: for LC50 (ppm) / LC99 (ppm): NRFS, Probit analysis; for mortality at 10000 ppm: 10,000 ppm; for mortality at 2.5 ppm: 2.500 ppm; for mortality at 5000 ppm: 5,000 ppm
Procedure: The larval packet test (LPT) is a modification of that first described by Stone and Haydock (1962, Bull. Entomol. Res., 563-578, http://dx.doi.org/10.1017/5000748530004832X) for evaluation of field resistance in cattle tick (Rhipicephalus microplus) larvae.
The first LPT assay was conducted to identify the potential range of flavesone acaricidal activity against larvae of a susceptible non-resistant field strain (NRFS) of R. microplus as a reference strain using a wide range of concentrations (1 in 10 in series).
The test compound, flavesone, 6-isobutyryl-2,2,4,4-tetramethylcyclohexane-1,3,5-trione, 96.7%, was used. As its volatility/evaporative properties were unknown, the LPT method was modified to incorporate the use of suitably-sized polyethylene plastic sheets to envelop the larval packets, minimizing exposure of the test active to the atmosphere.
In addition, the use of the solvent trichloroethylene (TCE) was removed to avoid the time required for evaporation in the preparation of test papers. The test solutions were prepared in olive oil only at the diluent and the papers immediately enveloped in the plastic sheets and sealed with bulldog clips to minimize evaporation.
A stock solution with a concentration of 100,000 ppm (10%) flavesone was prepared in olive oil as the diluent (1.035 mL flavesone (96.7%) to 8.965 mL olive oil) and then further diluted 1 in 10 in series to also give 10,000 ppm, 1,000 ppm, 100 ppm, 10 ppm and 1 ppm concentration. The negative control was olive oil only. No positive control was included in this experiment. Due to the viscosity of the olive oil, all solutions were prepared using reverse pipetting technique.
as §1
An 8 dram vial containing approximately 20,000 hatched 7-21 day old NRFS larvae (about 1 g eggs) was opened and set up on a moated tray with a small amount of detergenated water, about 15 to 30 minute before use. Only larvae that migrated to the top of the vial were used in the assay.
as §2, §3, §4, §5
The stock solution of flavesone (100,000 ppm) was diluted 1 in 10 with olive oil (1 mL to 9 mL diluent) to give 10,000 ppm, which was then further diluted 1 in 2 in series (5 mL to 5 mL diluent) to give 5,000 ppm, 2,500 ppm, 1,250 ppm, 625 ppm, 312.5 ppm and 156.25 ppm concentrations. […]

[3] = Rhipicephalus microplus, Example 2, 24 hours
[4] = Rhipicephalus microplus, Example 4, 48 hours
[5] = Rhipicephalus microplus, 24 h, Example 2
[6] = Rhipicephalus microplus, 24 h, Example 3
[7] = Rhipicephalus microplus, 48 h, Example 4

For `CC(C)C(=O)C1C(=O)C(C)(C)C(=O)C(C)(C)C1=O` [Flavesone, 1-isobutyroyl-3,3,5,5-tetramethylcyclohexane-2,4,6-trione], the “cross-resistance, comparing LC50 and LC99 data between NRFS and Tiaro strains” value ([1]; Example 2, 24 hours) was “no evidence of cross-resistance”, the “LC50 (ppm)” value ([1]; Example 2, 24 hours) was 647 ppm and the “LC99 (ppm)” value ([1]; Example 2, 24 hours) was 1039 ppm. For the same compound, the “LC50 (ppm)” value ([1]; Example 4, 48 hours) was 521 ppm, the “LC99 (ppm)” value ([1]; Example 4, 48 hours) was 887 ppm and the mortality at 2.5 ppm ([1]; Rhipicephalus microplus, Example 2, 2.500 ppm, 24 hours) was 100%. For the same compound, the mortality at 156.25 ppm ([1]; Rhipicephalus microplus, Example 2, 156.25 ppm, 24 hours) was 0%, the mortality at 312.5 ppm [1, 3] was 0.13% and the mortality at 625 ppm [1, 3] was 12.8%. For the same compound, the mortality at 1250 ppm ([1]; Rhipicephalus microplus, Example 2, 1,250 ppm, 24 hours) was 100%, the mortality at 5000 ppm ([1]; Rhipicephalus microplus, Example 2, 5,000 ppm, 24 hours) was 100% and the mortality at 10000 ppm ([1]; Rhipicephalus microplus, Example 2, 10,000 ppm, 24 hours) was 100%. The mortality at 312.5 ppm [1, 4] was 0.97%, the mortality at 625 ppm [1, 4] was 84.1% and the mortality at 1250 ppm ([1]; Rhipicephalus microplus, Example 4, 1250 ppm, 48 hours) was 100%. The “LC50 (ppm)” value ([2]; Example 1, 24 hours) was 171 ppm, the “LC99 (ppm)” value ([2]; Example 1, 24 hours) was 3346 ppm and the “LC50 (ppm)” value ([2]; Example 2, 24 hours) was 690 ppm. The “LC99 (ppm)” value ([2]; Example 2, 24 hours) was 1109 ppm, the “LC50 (ppm)” value ([2]; Example 3, 24 hours) was 610 ppm and the “LC99 (ppm)” value ([2]; Example 3, 24 hours) was 1050 ppm. The “LC50 (ppm)” value ([2]; Example 4, 48 hours) was 526 ppm, the “LC99 (ppm)” value ([2]; Example 4, 48 hours) was 923 ppm and the mortality at 1 ppm ([2]; Rhipicephalus microplus, 24 h, Example 1, 1 ppm) was 0%. The mortality at 10 ppm ([2]; Rhipicephalus microplus, 24 h, Example 1, 10 ppm) was 0.62%, the mortality at 100 ppm ([2]; Rhipicephalus microplus, 24 h, Example 1, 100 ppm) was 1.82% and the mortality at 1000 ppm ([2]; Rhipicephalus microplus, 24 h, Example 1, 1,000 ppm) was 97%. The mortality at 10000 ppm ([2]; Rhipicephalus microplus, 24 h, Example 1) was 100%, the mortality at 100000 ppm ([2]; Rhipicephalus microplus, 24 h, Example 1, 100,000 ppm) was 100% and the mortality at 2.5 ppm [2, 5] was 100%. It also gave a mortality at 156.25 ppm ([2]; Rhipicephalus microplus, 24 h, Example 2, 156.25 ppm) of 0%, a mortality at 312.5 ppm [2, 5] of 0% and a mortality at 625 ppm [2, 5] of 11.8%. For the same compound, the mortality at 1250 ppm ([2]; Rhipicephalus microplus, 24 h, Example 2, 1,250 ppm) was 100%, the mortality at 5000 ppm [2, 5] was 100% and the mortality at 10000 ppm [2, 5] was 100%. For the same compound, the mortality at 2.5 ppm [2, 6] was 100%, the mortality at 312.5 ppm [2, 6] was 1.28% and the mortality at 625 ppm [2, 6] was 11.8%. It also gave a mortality at 1250 ppm ([2]; Rhipicephalus microplus, 24 h, Example 3, 1,250 ppm) of 100%, a mortality at 5000 ppm [2, 6] of 100% and a mortality at 312.5 ppm [2, 7] of 2.17%. The mortality at 625 ppm [2, 7] was 66.8% and the mortality at 1250 ppm ([2]; Rhipicephalus microplus, 48 h, Example 4, 1250 ppm) was 100%.

Source: patent US11259522B2, “Control of resistant pests” (priority 2017, dated 2022)
